Patent publication US9963445B2, “Chemical compounds” (SYNGENTA PARTICIPATIONS AG, priority 2013, dated 2018)

Assays:
Assay type in all cases: in vivo
Echinochloa crus-galli [1] = experiment: Pre-emergence herbicidal activity, glasshouse pot test; conditions: pre-emergence spray, rate 1000 g/ha, evaluated after 13 days, scale 0-5
Procedure, shortened: (§1)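 Damage score 0–5 (5 = total damage) read 13 d after spraying. Pots sown, sprayed pre-emergence at day 1 with aqueous spray from acetone/water 50:50 + 0.5% Tween 20 formulation; glasshouse 24/16 °C, 14 h light, 65% RH.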

Abutilon theophrasti [2] = experiment: as above; conditions: pre-emergence spray, rate 1000 g/ha, evaluated after 13 days, scale 0-5
Procedure, shortened: as §1

Amaranthus retroflexus [3] = experiment: as above; conditions: pre-emergence spray, rate 1000 g/ha, evaluated after 13 days, scale 0-5
Procedure, shortened: as §1

Setaria faberi [4] = experiment: as above; conditions: pre-emergence spray, rate 1000 g/ha, evaluated after 13 days, scale 0-5
Procedure, shortened: as §1

zea mays [5] = experiment: as above; conditions: pre-emergence spray, rate 1000 g/ha, evaluated after 13 days, scale 0-5
Procedure, shortened: as §1

Alopecurus myosuroides [6] = experiment: as above; conditions: pre-emergence spray, rate 1000 g/ha, evaluated after 13 days, scale 0-5
Procedure, shortened: as §1

Echinochloa crus-galli [7] = experiment: Post-emergence herbicidal activity, glasshouse pot test; design: key: 0 = no damage to plant, 5 = total damage to plant; conditions: Application post-emergence, rate 1000 g/ha, evaluated after 13 days
Procedure, shortened: (§2)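 Test solution: technical active ingredient in acetone/water (50:50) containing 0.5% Tween 20, applied as an aqueous spray to 8-day-old plants. Evaluation at 13 days, 0–5 damage scale.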

Abutilon theophrasti [8] = experiment: as above; design: key: 0 = no damage to plant, 5 = total damage to plant; conditions: Application post-emergence, rate 1000 g/ha, evaluated after 13 days
Procedure, shortened: as §2

Amaranthus retroflexus [9] = experiment: as above; design: key: 0 = no damage to plant, 5 = total damage to plant; conditions: Application post-emergence, rate 1000 g/ha, evaluated after 13 days
Procedure, shortened: as §2

Setaria faberi [10] = experiment: as above; design: key: 0 = no damage to plant, 5 = total damage to plant; conditions: Application post-emergence, rate 1000 g/ha, evaluated after 13 days
Procedure, shortened: as §2

zea mays [11] = experiment: as above; design: key: 0 = no damage to plant, 5 = total damage to plant; conditions: Application post-emergence, rate 1000 g/ha, evaluated after 13 days
Procedure, shortened: as §2

Alopecurus myosuroides [12] = experiment: as above; design: key: 0 = no damage to plant, 5 = total damage to plant; conditions: Application post-emergence, rate 1000 g/ha, evaluated after 13 days
Procedure, shortened: as §2

Structure (SMILES) | ECHCG damage score, application pre-emergence (Echinochloa crus-galli [1]) | ABUTH damage score, application pre-emergence (Abutilon theophrasti [2]) | AMARE damage score, application pre-emergence (Amaranthus retroflexus [3]) | SETFA damage score, application pre-emergence (Setaria faberi [4]) | ZEAMX damage score, application pre-emergence (zea mays [5]) | ALOMY damage score, application pre-emergence (Alopecurus myosuroides [6]) | ECHCG herbicidal damage score (Echinochloa crus-galli [7]) | ABUTH herbicidal damage score (Abutilon theophrasti [8]) | AMARE herbicidal damage score (Amaranthus retroflexus [9]) | SETFA herbicidal damage score (Setaria faberi [10]) | ZEAMX herbicidal damage score (zea mays [11]) | ALOMY herbicidal damage score (Alopecurus myosuroides [12])
CC1=C(Cl)C(=O)N(c2cc(C(C)(C)C)ncn2)C1O (stereo not drawn) [CF2] | 4 | 5 | 5 | 4 | 3 | 4 | 5 | 5 | 5 | 5 | 5 | 5
CC1=C(Cl)C(=O)N(c2cc(C(F)(F)F)ncn2)C1O (stereo not drawn) [CF3] | 4 | 5 | 3 | 3 | 1 | 3 | 5 | 5 | 3 | 5 | 4 | 5
CC1=C(Cl)C(=O)N(c2cc(C3CC3)ncn2)C1O (stereo not drawn) [CF4] | 4 | 5 | 5 | 5 | 1 | 3 | 5 | 5 | 5 | 5 | 2 | 5
CC1=C(Cl)C(=O)N(c2cc(OC(C)C)ncn2)C1O (stereo not drawn) [CF5] | 3 | 4 | 4 | 5 | 2 | 3 | 5 | 5 | 4 | 5 | 2 | 4
C/C=C/c1cc(N2C(=O)C(Cl)=C(C)C2O)ncn1 (stereo not drawn) [CF6] | 3 | 0 | 2 | 2 | 0 | 2 | 4 | 4 | 2 | 4 | 0 | 3
CCC1=C(Cl)C(=O)N(c2cc(C(C)(C)C#N)ncn2)C1O (stereo not drawn) [CF10] | 4 | 5 | 5 | 4 | 4 | 2 | 5 | 5 | 5 | 5 | 5 | 5
CCOC(=O)C(C)(C)c1cc(N2C(=O)C(Cl)=C(C)C2O)ncn1 (stereo not drawn) [CF11] | 5 | 5 | 4 | 4 | 2 | 2 | 5 | 5 | 2 | 5 | 3 | 5
CC1=C(Cl)C(=O)N(c2cc(C#N)ncn2)C1O (stereo not drawn) [CF13] | 0 | 0 | 0 | 0 | 1 | 0 | 1 | 2 | 2 | 3 | 1 | 3
CC1=C(Cl)C(=O)N(c2cc(C(C)(C)C#N)ncn2)C1O (stereo not drawn) [CF14] | 5 | 5 | 5 | 5 | 2 | 3 | 5 | 5 | 5 | 5 | 5 | 5
CC1=C(Cl)C(=O)N(c2cc(C(C)(F)F)ncn2)C1O (stereo not drawn) [CF15] | 5 | 5 | 5 | 5 | 2 | 3 | 5 | 5 | 5 | 5 | 4 | 4
CCN(C)c1cc(N2C(=O)C(Cl)=C(C)C2O)ncn1 (stereo not drawn) [CF16] | 2 | 2 | 2 | 4 | 1 | 1 | 5 | 3 | 3 | 5 | 1 | 4
CC1=C(Cl)C(=O)N(c2cc(C3(C#N)CC3)ncn2)C1O (stereo not drawn) [CF17] | 3 | 2 | 5 | 5 | 2 | 3 | 5 | 5 | 5 | 5 | 3 | 4
CC1=C(Cl)C(=O)N(c2cc(C(C)C#N)ncn2)C1O (stereo not drawn) [CF18] | 1 | 1 | 1 | 3 | 0 | 4 | 2 | 4 | 2 | 3 | 1 | 3
CC1=C(Cl)C(=O)N(c2cc(C(C)C)ncn2)C1O (stereo not drawn) [CF19] | 4 | 5 | 5 | 4 | 2 | 2 | 5 | 5 | 5 | 5 | 3 | 3
CC1=C(Cl)C(=O)N(c2cc(N(C)C)ncn2)C1O (stereo not drawn) [CF20] | 3 | 0 | 3 | 1 | 2 | 1 | 4 | 4 | 5 | 5 | 0 | 4
COc1cc(N2C(=O)C(Cl)=C(C)C2O)ncn1 (stereo not drawn) [CF21] | 5 | 1 | 4 | 4 | 2 | 2 | 5 | 3 | 3 | 5 | 3 | 4
